# In patent publication US4248883A, “1-(3-Mercapto-2-methylpropanoyl)prolyl amino acid derivatives and salts thereof, processes for their preparation, and pharmaceutical compositions containing such compounds” (Dainippon Pharmaceutical Co., Ltd., priority 1978, dated 1981):
# Where two headings read alike, the source gives them in different places.
# Experiments:
# [1] = test system: Goldblatt two-kidney renal hypertensive rats; experiment: Test 1: antihypertensive activity, oral, tail-plethysmographic blood pressure in Goldblatt two-kidney renal hypertensive rats; format: in vivo, rat (male STD Wistar strain); conditions: for change in vivo at 100 µmol/kg: Rattus norvegicus; for Peak time (time at which the maximum hypotensive effect was observed): renal hypertensive rats; for antihypertensive effect time course relative to compound 1 (SQ-14225), FIGS. 1 and 2: single oral, 0.015 millimole/kg and 0.1 millimole/kg, mean of six animals
# Text: The contralateral kidney and its renal artery were left intact. The animals were maintained on commercial rat chow and tap water ad libitum.
# In each Figure, the ordinate represents the changes in blood pressure (mmHg) and the abscissa, the time (hours) elapsed after oral administration.
# [2] = in vivo; conditions: mouse, in vivo
# Text: (§1) Male STD-ddY strain mice, weighing 21 to 24 grams, were used.
# [3] = test system: mice; experiment: Test 2: toxicity (acute LD50 in mice); conditions: mice
# Text: as §1
# [4] = test system: angiotensin I-converting enzyme; conditions: Science 196, 441 (1977); cited from earlier work
# [5] = test system: angiotensin I-converting enzyme; conditions: Biochemistry, 16, 5484 (1977); cited from earlier work
# [6] = test system: experimental hypertensive animals; conditions: Science 196, 441 (1977); cited from earlier work
# [7] = oral, 0.1 millimole/kg, 7 hours after administration, % of initial blood pressure, read-out: Change in blood pressure, 7 hours after administration (%)
# [8] = oral, 0.1 millimole/kg, at peak time, % of initial blood pressure, read-out: Change in blood pressure, peak time (%)
# [9] = oral, 0.1 millimole/kg, 7 hours after administration
# [10] = oral, 0.1 millimole/kg, at peak time
# [11] = oral, 0.1 millimole/kg, positive = decrease
Structure (SMILES),"change in vivo at 100 µmol/kg [1, 7] [%]","change in vivo at 100 µmol/kg [1, 8] [%]","Change in blood pressure, 7 hours after administration [1, 9] [mmHg]","Change in blood pressure, peak time [1, 10] [mmHg]","Peak time (time at which the maximum hypotensive effect was observed) ([1]; oral, 0.1 millimole/kg) [h]","antihypertensive effect time course relative to compound 1 (SQ-14225), FIGS. 1 and 2 [1]",LD50 ([2]; iv) [mg/kg],LD50 ([2]; po) [mg/kg],toxicity (in words) [3],"change in vivo at 100 µmol/kg ([1]; po, 7 h, read-out: Change in blood pressure, 7 hours after administration (%)) [%]","change in vivo at 100 µmol/kg ([1]; po, read-out: Change in blood pressure, peak time (%)) [%]","decrease in initial blood pressure at 7 hours after medication [1, 11] [%]","maximum hypotensive response (decrease in initial blood pressure) [1, 11] [%]",inhibitory activity in vivo on angiotensin I-converting enzyme [4],inhibition of angiotensin I-converting enzyme in vitro [5],antihypertensive activity in experimental hypertensive animals [6],"reduction of blood pressures (in words) ([1]; oral, 0.1 millimole/kg)"
"CC(=O)SC[C@@H](C)C(=O)N1CCC[C@H]1C(=O)N[C@@H](Cc1ccccc1)C(=O)O [A, 1-(D-3-Acetylthio-2-methylpropanoyl)-L-prolyl-L-phenylalanine]",-16,-17,-33,-35,5,milder and more prolonged antihypertensive effect,> 1000,> 6000,very weak,–,–,–,–,–,–,–,–
"CCC(=O)SC[C@@H](C)C(=O)N1CCC[C@H]1C(=O)N[C@@H](Cc1ccccc1)C(=O)O [B, 1-(D-3-Propanoylthio-2-methylpropanoyl)-L-prolyl-L-phenylalanine]",-17,-18,-36,-40,5,milder and more prolonged antihypertensive effect,> 1000,> 6000,very weak,–,–,–,–,–,–,–,–
"C[C@H](CSC(=O)C(C)(C)C)C(=O)N1CCC[C@H]1C(=O)N[C@@H](Cc1ccccc1)C(=O)O [C, 1-[D-3-(2,2-Dimethylpropanoyl)thio-2-methylpropanoyl]-L-prolyl-L-phenylalanine]",-18,-20,-37,-41,5,–,–,–,–,–,–,–,–,–,–,–,–
"C[C@H](CS)C(=O)N1CCC[C@H]1C(=O)O [Compound 1, 1-(D-3-Mercapto-2-methylpropanoyl)-L-proline, reference compound]",–,–,-15,-35,–,–,–,–,–,-8,-18,8,18,potent inhibitory activity in vivo,particularly good inhibitor of angiotensin I-converting enzyme,superior antihypertensive activity,–
"C[C@H](CS)C(=O)N1CCC[C@H]1C(N)=O [Compound 2, 1-(D-3-Mercapto-2-methylpropanoyl)-L-proline amide, reference compound]",-1,-3,-1,-5,2,–,–,–,–,–,–,–,–,–,–,–,did not reduce blood pressures
"CC(=O)SC[C@@H](C)C(=O)N1CCC[C@H]1C(N)=O [Compound 3, 1-(D-3-Acetylthio-2-methylpropanoyl)-L-proline amide, reference compound]",-2,-4,-4,-7,2,–,–,–,–,–,–,–,–,–,–,–,did not reduce blood pressures
"CC(C)C(=O)SC[C@@H](C)C(=O)N1CCC[C@H]1C(=O)N[C@@H](Cc1ccccc1)C(=O)O [D, 1-[D-3-(2-Methylpropanoyl)thio-2-methylpropanoyl]-L-prolyl-L-phenylalanine]",-14,-18,-29,-37,5,–,–,–,–,–,–,–,–,–,–,–,–
"CCSSC[C@@H](C)C(=O)N1CCC[C@H]1C(=O)N[C@@H](Cc1ccccc1)C(=O)O [E, 1-(D-3-Ethyldithio-2-methylpropanoyl)-L-prolyl-L-phenylalanine]",-19,-19,-38,-38,7,–,–,–,–,–,–,–,–,–,–,–,–
"C[C@H](CSC(=O)c1ccccc1)C(=O)N1CCC[C@H]1C(=O)N[C@@H](Cc1ccccc1)C(=O)O [F, 1-(D-3-Benzoylthio-2-methylpropanoyl)-L-prolyl-L-phenylalanine]",-15,-15,-31,-31,5,–,–,–,–,–,–,–,–,–,–,–,–
"COC(=O)[C@H](Cc1ccc(O)cc1)NC(=O)[C@@H]1CCCN1C(=O)[C@H](C)CSC(C)=O [G, 1-(D-3-Acetylthio-2-methylpropanoyl)-L-prolyl-L-tyrosine methyl ester]",-15,-17,-29,-33,5,–,–,–,–,–,–,–,–,–,–,–,–
"CCOC(=O)[C@H](Cc1ccc(O)cc1)NC(=O)[C@@H]1CCCN1C(=O)[C@H](C)CSC(C)=O [H, 1-(D-3-Acetylthio-2-methylpropanoyl)-L-prolyl-L-tyrosine ethyl ester]",-14,-17,-29,-34,5,–,–,–,–,–,–,–,–,–,–,–,–
"CCOC(=O)[C@H](Cc1c[nH]c2ccccc12)NC(=O)[C@@H]1CCCN1C(=O)[C@H](C)CSC(C)=O [I, 1-(D-3-Acetylthio-2-methylpropanoyl)-L-prolyl-L-tryptophan ethyl ester]",-14,-16,-26,-30,5,–,–,–,–,–,–,–,–,–,–,–,–
"CCOC(=O)[C@H](CCSC)NC(=O)[C@@H]1CCCN1C(=O)[C@H](C)CSC(C)=O [J, 1-(D-3-Acetylthio-2-methylpropanoyl)-L-prolyl-L-methionine ethyl ester]",-13,-15,-27,-30,5,–,–,–,–,–,–,–,–,–,–,–,–
